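96-well plates; 48 h exposure; 5 concentrations. Endpoints by linear interpolation between flanking doses. Not reached: highest tested concentration assigned. GI50 is the concentration that inhibits growth by half. TGI: total growth inhibition.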
Key:
Experiment in all cases: DTP human tumour cell line panel, 48 h
KM12 colon = test system: KM12 colon
KM20L2 colon = test system: KM20L2 colon
M19-MEL melanoma = test system: M19-MEL melanoma
A549 NSCLC = test system: A549 NSCLC
K-562 leukemia = test system: K-562 leukemia
NCI-H522 lung = test system: NCI-H522 lung
MALME-3M melanoma = test system: MALME-3M melanoma
MDA-MB-231 breast = test system: MDA-MB-231 breast
NCI/ADR-RES ovarian = test system: NCI/ADR-RES ovarian
BT-549 breast = test system: BT-549 breast

| SMILES | TGI (KM12 colon) [µM] | TGI (KM20L2 colon) [µM] | TGI (M19-MEL melanoma) [µM] | TGI (A549 NSCLC) [µM] | TGI (K-562 leukemia) [µM] | TGI (NCI-H522 lung) [µM] | TGI (MALME-3M melanoma) [µM] | GI50 (KM12 colon) [µM] | GI50 (KM20L2 colon) [µM] | GI50 (A549 NSCLC) [µM] | GI50 (K-562 leukemia) [µM] | GI50 (NCI-H522 lung) [µM] | GI50 (MALME-3M melanoma) [µM] | GI50 (M19-MEL melanoma) [µM] | GI50 (MDA-MB-231 breast) [µM] | TGI (MDA-MB-231 breast) [µM] | GI50 (NCI/ADR-RES ovarian) [µM] | TGI (NCI/ADR-RES ovarian) [µM] | GI50 (BT-549 breast) [µM] | TGI (BT-549 breast) [µM] |
| --- | --- | --- | --- | --- | --- | --- | --- | --- | --- | --- | --- | --- | --- | --- | --- | --- | --- | --- | --- | --- |
| O=C(CCN(C(=O)O)S(=O)(=O)c1ccc(NC(=O)c2ccccc2)cc1)Nc1ccccc1 | > 100 | > 100 | > 100 | > 46.4 | > 83.2 | > 100 | > 100 |  |  |  |  |  |  |  |  |  |  |  |  |  |
| O=[N+]([O-])c1cccc(C2=NN(c3ccccc3)C[N+](c3ccc(Br)cc3)=N2)c1 | > 100 | > 100 | > 100 | > 100 | > 100 | > 100 | > 100 |  |  |  |  |  |  |  |  |  |  |  |  |  |
| CCCCCCCCCCCCCC(=O)OCC(C[As](=O)(O)O)OC(=O)CCCCCCCCCCCCC (stereo not given) | > 100 | > 100 |  | > 100 | > 100 | > 100 | > 100 |  |  |  |  |  |  |  |  |  |  |  |  |  |
| CC(C)CCC1CC2C(=O)N(c3ccccc3)C(=O)C2c2[nH]c3ccccc3c21 (stereo not given) | 14.8 |  | 20 | 17.7 | 10.7 |  | 15.1 |  |  |  |  |  |  |  |  |  |  |  |  |  |
| [N-]=[N+]=NC1(Cc2ccccc2)C(=O)c2cccc3c2N(CCC3)C1=O (stereo not given) | > 100 |  | > 100 | > 100 | > 100 | > 100 | > 100 |  |  |  |  |  |  |  |  |  |  |  |  |  |
| O=C1CCC2(c3ccc(Cl)cc3)Nc3ncccc3N12 (stereo not given) | > 100 | > 100 | > 100 | > 100 | > 100 | > 100 | > 100 |  |  |  |  |  |  |  |  |  |  |  |  |  |
| N#CN/C(N)=N/CO | > 55.2 | > 100 | > 100 | > 100 | > 100 | > 100 | > 100 |  |  |  |  |  |  |  |  |  |  |  |  |  |
| CC1(C)COC(C2(C)C(=O)C=C(c3ccccc3)c3ccccc32)=N1 (stereo not given) | > 100 | > 100 | > 100 | > 100 | > 100 | > 100 | 63.8 |  |  |  |  |  |  |  |  |  |  |  |  |  |
| O=C1CCC(Cl)=CC2CCCN12 (stereo not given) |  | > 100 | > 100 | > 100 | > 100 |  | > 100 |  |  |  |  |  |  |  |  |  |  |  |  |  |
| O=C(Nc1ccn(CCO)c(=O)n1)c1ccccc1 | > 100 | > 100 | > 100 | > 100 | > 100 | > 100 | > 100 |  |  |  |  |  |  |  |  |  |  |  |  |  |
| N.N.N.N.O=C([O-])CCl.O=C([O-])CCl.[Co+3].[O-][Cl+3]([O-])([O-])[O-] | > 100 | > 100 |  | > 100 | > 100 | > 100 | > 100 | > 100 | > 100 | > 100 | > 100 | > 100 | > 100 |  |  |  |  |  |  |  |
| CCCCOC(=O)CNC(=O)OC/C=C/C#CC#C/C=C/COC(=O)NCC(=O)OCCCC | > 100 | > 100 | > 100 | > 100 | > 100 | > 100 | > 100 | > 100 | > 100 | > 100 | > 100 | > 100 | > 100 | > 100 |  |  |  |  |  |  |
| Cc1c2n(c(=O)[nH]c1=O)C1OC(CO)C(O2)C1O (stereo not given) | > 100 | > 100 | > 100 | > 100 | > 100 | > 100 |  |  |  |  |  |  |  |  |  |  |  |  |  |  |
| O=C1c2ccccc2C(=O)N1CCn1ccc(NC(c2ccccc2)(c2ccccc2)c2ccccc2)nc1=O | 49.1 | 27.5 | 32.6 | > 100 | 63.8 | 45.9 | 43.2 |  |  |  |  |  |  |  |  |  |  |  |  |  |
| CC(=O)Nc1ccc(S(=O)(=O)N2C(=O)CCC2C(=O)Nc2ccc(Br)cc2)cc1 (stereo not given) | 13.7 |  |  | 13.4 | 10.7 | 3.6 | 9.17 | 1.82 |  | 1.6 | 1.95 | 1.06 | 2.64 |  | 1.29 | 6.94 | 2.47 | > 100 | 1.79 | 8.38 |
| CC(C)C(CCl)NC(=O)c1cccc(C(=O)N[C@H](CCl)C(C)C)n1 (stereo in doubt) | > 100 | > 100 | > 100 | > 100 | > 100 | > 100 | > 100 |  |  |  |  |  |  |  |  |  |  |  |  |  |
| CC(=O)CCn1ncc(Cl)c(Cl)c1=O | 41.5 | 36.2 | 17.2 | 44.6 | 18.5 |  | 36.2 |  |  |  |  |  |  |  |  |  |  |  |  |  |
| CSc1nc(=O)n(CCC#N)nc1SC | > 100 |  |  | > 100 | 71.1 | 61.8 | 48.6 |  |  |  |  |  |  |  |  | > 100 |  | > 100 |  | 55.1 |
| Nc1nc(Cl)cc(NCCCCCCCCNc2cc(Cl)nc(N)n2)n1 | 56.9 | > 100 | > 100 | > 100 | > 100 | 37.2 |  |  |  |  |  |  |  |  |  |  |  |  |  |  |
| CCCCC#CC1=C(Br)C(=O)OC1 | 3.89 |  |  | 43.4 | > 100 | 5.08 | 4.13 | 1.8 |  | 17.2 | 0.279 | 2.27 | 1.73 |  | 1.78 | 4.03 | 2.04 | 5.9 | 1.8 | 5.91 |
| CN1CC(=O)N2Cc3ccccc3-n3cccc3C2C1 (stereo not given) | > 100 | > 100 | > 100 | > 100 |  |  | > 100 |  |  |  |  |  |  |  |  |  |  |  |  |  |
| CCN1CCN(C(=O)[C@@]2(C)CC[C@]3(C)CC[C@]4(C)C(=CC(=O)[C@@H]5[C@@]6(C)CC[C@H](OC7C[C@@H](O)[C@@H](O)C(C)O7)C(C)(C)[C@@H]6CC[C@]54C)[C@@H]3C2)CC1 (stereo not given in full) | 9.95 |  |  | 8.94 | 2.66 | 6.15 | 2.05 | 2.74 |  | 1.76 | 1.08 | 1.59 | 0.917 |  | 1.13 | 2.59 | 2.53 | 12.9 | 5.84 | 13 |
| O=C(O)c1nnsc1-c1ccc(-c2snnc2C(=O)O)cc1 | > 100 |  |  | > 100 | 98.3 | > 100 | > 100 |  |  |  |  |  |  |  |  | > 100 |  | > 100 |  | > 100 |
| COc1ccccc1/C=N\N/C(N)=N\N=C\c1ccccc1OC | 1.36 |  |  | > 100 | 1.7 |  | 5.2 | 0.264 |  | 1.55 | 0.263 | 0.956 | 0.237 |  | 2.58 | > 60.3 | 0.39 |  | 0.785 | 3.56 |

Reference: PubChem BioAssay (NCI)
